Columns and labels:
[1] = Forced degradation study (heat and acid) on Meloxicam/Gabapentin/Lidocaine/Prilocaine Cream 0.09%/2.5%/2.15%/2.15%; conditions: untreated, heat treated and acid treated samples, undiluted extracts
Procedure: (§1) The column temperature was 50° C.
as §1

[2] = 198 Day Potency Test of transdermal cream including meloxicam, lamotrigine, lidocaine, and prilocaine; type: physicochemical; conditions: 198 days, stored at approximately 20° C. to 25° C., in cream, HPLC; for % of EXP.: relative to expected amount
Procedure: (§2) The sample was stored in approximately 20° C. to 25° C. (68° F. to 77° F.) conditions, and contained one large white tube with cream in a clear bag.

[3] = 100 Day Potency Test of transdermal cream including meloxicam, topiramate, lidocaine, and prilocaine; type: physicochemical; conditions: 100 days, stored at approximately 20° C. to 25° C., in cream, HPLC; for % of EXP.: relative to expected amount
Procedure: as §2

Structure (SMILES) | Degradation seen in Total Ion Chromatograms (TIC) [1] | Results (amount of analyte found) [2] | % of EXP. [2] | Results (amount of analyte found) [3] | % of EXP. [3]
NCC1(CC(=O)O)CCCCC1 [Gabapentin] | major degradant at 1.18 minute was caused both by acid and by heat | – | – | – | –
CCCNC(C)C(=O)Nc1ccccc1C (stereo not shown) [Prilocaine] | – | 2.118% | 105.9% | 1.899% | 95.0%
Nc1nnc(-c2cccc(Cl)c2Cl)c(N)n1 [Lamotrigine] | – | 2.463% | 98.5% | – | –
CCN(CC)CC(=O)Nc1c(C)cccc1C [Lidocaine] | – | 1.927% | 96.4% | 1.700% | 85.0%
CC1(C)O[C@@H]2[C@@H](CO[C@@]3(COS(N)(=O)=O)OC(C)(C)O[C@@H]23)O1 [Topiramate] | – | – | – | 2.368% | 94.7%

— patent US9962391B2, “Composition and method for compounded therapy” (CMPD LICENSING, LLC, priority 2011, dated 2018)
